The source of these data is ChEMBL document CHEMBL4823244, “Synthesis of norisoboldine derivatives and bioactivity assay for inducing the generation of regulatory T cells” (Bioorg Med Chem Lett, 2021).

Calls of active or inactive are those of the source. The calls are words filed in the database; no cut-off is given here.

Series [1] deals with Mus musculus. Nature of the series: Antiinflammatory activity in DSS-induced ulcerative colitis mouse model assessed as reduction in DAI score at 200 mg/kg, po administered for 10 consecutive days. In kind it is functional, organism-based. The note with it: time 10.0 day.
Series [2] concerns Mus musculus. Put plainly: Antiinflammatory activity in DSS-induced ulcerative colitis mouse model assessed as rescue of colon length shortening at 200 mg/kg, po administered for 10 consecutive days. In kind it is functional, organism-based. The following applies: time 10.0 day.
Series [3] deals with Mus musculus. Put plainly: Antiinflammatory activity in DSS-induced ulcerative colitis mouse model assessed as reduction in MPO activity at 200 mg/kg, po administered for 10 consecutive days. In kind it is functional, organism-based. The following applies: time 10.0 day.
In series [4] the test system is Mus musculus. Put plainly: Antiinflammatory activity in DSS-induced ulcerative colitis mouse model assessed as protection against colon destruction at 200 mg/kg, po administered for 10 consecutive days by HE staining based histopathological analysis. The note with it: time 10.0 day. In kind it is functional, organism-based.
The subject of series [5] is Mus musculus. Nature of the series: Antiinflammatory activity in DSS-induced ulcerative colitis mouse model assessed as protection against inflammation of colons at 200 mg/kg, po administered for 10 consecutive days by HE staining based histopathological analysis. In kind it is functional, organism-based. The note with it: time 10.0 day.
Series [6] concerns Mus musculus. Nature of the series: Induction of Treg cell differentiation in DSS- induced ulcerative colitis mouse model assessed as number of Treg cells in colonic lamina proprias at 200 mg/kg, po administered for 10 consecutive days by flow cytometry analysis (Rvb= 7.97%). In kind it is functional. The note with it: time 10 day. Background: Flow cytometry measures light scatter and fluorescence of single cells or particles in a stream.

Series [7] concerns Mus musculus. Nature of the series: Induction of Treg cell differentiation in DSS- induced ulcerative colitis mouse model assessed as number of Treg cells in mesenteric lymph nodes at 200 mg/kg, po administered for 10 consecutive days by flow cytometry analysis (Rvb= 7.52%). In kind it is functional. The following applies: time 10 day.
Series [8] deals with Mus musculus. Nature of the series: Induction of Treg cell differentiation in DSS- induced ulcerative colitis mouse model assessed as number of Treg cells in spleens at 200 mg/kg, po administered for 10 consecutive days by flow cytometry analysis (Rvb= 6.49%). In kind it is functional. The note with it: time 10 day.
Another series concerns EL4. Put plainly: Cytotoxicity against mouse EL4 cells assessed as effect on cell viability at 1 to 10 uM measured after 72 hrs by MTT assay. In kind it is cell-based. The note with it: el4, 72 h, dose 1-10 µM. Background: Tetrazolium assays rely on reduction of a dye to a coloured formazan, in cell work by metabolically active cells.
In series [9] the test system is T-cell. Put plainly: Induction of cell differentiation in anti-CD3/CD28 stimulated naive T-cells assessed as upregulation of CD4+ CD25+ cell frequency at 1 uM measured after 72 hrs by flow cytometry analysis. In kind it is functional, cell-based.
For series [10], the system named is T-cell. Nature of the series: Induction of cell differentiation in anti-CD3/CD28 stimulated naive T-cells assessed as upregulation of Foxp3 mRNA expression at 1 uM measured after 72 hrs by Q-PCR analysis. In kind it is functional, cell-based.
In series [11] the test system is T-cell. Nature of the series: Induction of cell differentiation in anti-CD3/CD28 stimulated naive T-cells assessed as number of Treg cells at 3 uM measured after 72 hrs by flow cytometry analysis (reference value: 24 %). In kind it is functional.
For series [12], the system named is T-cell. Put plainly: Induction of cell differentiation in anti-CD3/CD28 stimulated naive T-cells assessed as number of Treg cells at 0.3 uM measured after 72 hrs by flow cytometry analysis (reference value: 24 %). In kind it is functional.
For series [13], the system named is T-cell. Put plainly: Induction of cell differentiation in anti-CD3/CD28 stimulated naive T-cells assessed as number of Treg cells at 1 uM measured after 72 hrs by flow cytometry analysis (reference value: 24 %). In kind it is functional.
The subject of series [14] is T-cell. Put plainly: Induction of cell differentiation in anti-CD3/CD28 stimulated naive T-cells assessed as upregulation of Foxp3 mRNA expression at 0.3 to 3 uM measured after 72 hrs by Q-PCR analysis. In kind it is functional, cell-based. The following applies: dose 0.3-3 µM.
Series [15] deals with T-cell. Put plainly: Induction of cell differentiation in anti-CD3/CD28 stimulated naive T-cells assessed as upregulation of IL-10 mRNA expression at 0.3 to 3 uM measured after 72 hrs by Q-PCR analysis. In kind it is functional, cell-based. The note with it: dose 0.3-3 µM.
Series [16] has as its system Mus musculus. Put plainly: Antiinflammatory activity in DSS-induced ulcerative colitis mouse model assessed as reduction in DAI score at 28 to 56 mg/kg, po administered for 10 consecutive days. The following applies: dose 28-56 mg/kg, time 10.0 day. In kind it is functional, organism-based.
The test system of series [17] is Mus musculus. Nature of the series: Antiinflammatory activity in DSS-induced ulcerative colitis mouse model assessed as rescue of colon length shortening at 28 to 56 mg/kg, po administered for 10 consecutive days. The note with it: dose 28-56 mg/kg, time 10.0 day. In kind it is functional, organism-based.
Series [18] relates to Mus musculus. Nature of the series: Antiinflammatory activity in DSS-induced ulcerative colitis mouse model assessed as reduction in MPO activity at 28 to 56 mg/kg, po administered for 10 consecutive days. The following applies: dose 28-56 mg/kg, time 10.0 day. In kind it is functional, organism-based.
Series [19] has as its system Mus musculus. Put plainly: Antiinflammatory activity in DSS-induced ulcerative colitis mouse model assessed as protection against colon destruction at 28 to 56 mg/kg, po administered for 10 consecutive days by HE staining based histopathological analysis. In kind it is functional, organism-based. The note with it: dose 28-56 mg/kg, time 10.0 day.
Series [20] has as its system Mus musculus. Nature of the series: Antiinflammatory activity in DSS-induced ulcerative colitis mouse model assessed as protection against inflammation of colons at 28 to 56 mg/kg, po administered for 10 consecutive days by HE staining based histopathological analysis. In kind it is functional, organism-based. The following applies: dose 28-56 mg/kg, time 10.0 day.

Series [21] has as its system Mus musculus. Put plainly: Induction of Treg cell differentiation in DSS- induced ulcerative colitis mouse model assessed as number of Treg cells in colonic lamina proprias at 28 mg/kg, po administered for 10 consecutive days by flow cytometry analysis (Rvb= 7.97%). The note with it: time 10 day. In kind it is functional.
In series [22] the test system is Mus musculus. Nature of the series: Induction of Treg cell differentiation in DSS- induced ulcerative colitis mouse model assessed as number of Treg cells in colonic lamina proprias at 56 mg/kg, po administered for 10 consecutive days by flow cytometry analysis (Rvb= 7.97%). The note with it: time 10 day. In kind it is functional.
Series [23] concerns Mus musculus. Put plainly: Induction of Treg cell differentiation in DSS- induced ulcerative colitis mouse model assessed as number of Treg cells in mesenteric lymph nodes at 28 mg/kg, po administered for 10 consecutive days by flow cytometry analysis (Rvb= 7.52%). In kind it is functional. The note with it: time 10 day.
For series [24], the system named is Mus musculus. Put plainly: Induction of Treg cell differentiation in DSS- induced ulcerative colitis mouse model assessed as number of Treg cells in mesenteric lymph nodes at 56 mg/kg, po administered for 10 consecutive days by flow cytometry analysis (Rvb= 7.52%). In kind it is functional. The following applies: time 10 day.
Series [25] concerns Mus musculus. Put plainly: Induction of Treg cell differentiation in DSS- induced ulcerative colitis mouse model assessed as number of Treg cells in spleens at 28 mg/kg, po administered for 10 consecutive days by flow cytometry analysis (Rvb= 6.49%). In kind it is functional. The note with it: time 10 day.
For series [26], the system named is Mus musculus. Nature of the series: Induction of Treg cell differentiation in DSS- induced ulcerative colitis mouse model assessed as number of Treg cells in spleens at 56 mg/kg, po administered for 10 consecutive days by flow cytometry analysis (Rvb= 6.49%). The note with it: time 10 day. In kind it is functional.
For series [27], the system named is Mus musculus. Put plainly: Induction of Treg cell differentiation in DSS- induced ulcerative colitis mouse model assessed as increase in Foxp3 mRNA level at 28 to 56 mg/kg, po administered for 10 consecutive days by Q-PCR analysis. In kind it is functional, organism-based. The note with it: dose 28-56 mg/kg, time 10.0 day.
Series [28] relates to Mus musculus. Put plainly: Induction of Treg cell differentiation in DSS- induced ulcerative colitis mouse model assessed as increase in IL-10 mRNA level at 28 to 56 mg/kg, po administered for 10 consecutive days by Q-PCR analysis. In kind it is functional, organism-based. The following applies: dose 28-56 mg/kg, time 10.0 day.

For `Nc1ccc(O)c(C(=O)O)c1` [MESALAMINE], the outcome in the series on Mus musculus [1], in the series on Mus musculus [2], in the series on Mus musculus [3], in the series on Mus musculus [4] and in the series with Mus musculus [5] was Active. Further, the Activity with Mus musculus [6] came to 9.59%; in the series on Mus musculus [7], 7.7%; in the series on Mus musculus [8] it was 5.9%.

Consider `COc1cc2c(cc1O)CC1c3c(cc(OC)c(O)c3-2)CCN1C(=O)c1cc(C)cc(C)c1` (centres undefined), for which the Activity entry in the series on EL4 was “Non-Toxic”; in the series with T-cell [11], 36%; with T-cell [12] it was 25.2%; in the series on T-cell [13] it was 31.1%; in the series on Mus musculus [21] it was 13.57%; with Mus musculus [22] it was 14.5%. The Activity is on record as 11.55% in the series on Mus musculus [23], 12.32% in the series on Mus musculus [24], 7.03% in the series on Mus musculus [25] and 7.87% in the series with Mus musculus [26]. Also, the result in the series on T-cell [9] was inactive. Also, the outcome with T-cell [10], with T-cell [14], in the series with T-cell [15], in the series with Mus musculus [16], in the series with Mus musculus [17] and with Mus musculus [18] was Active. Further, the outcome in the series with Mus musculus [19], in the series on Mus musculus [20], in the series with Mus musculus [27] and in the series on Mus musculus [28] was Active.
